Test results published in paper PMC6443376 (Journal of medicinal chemistry, 2018).
Read-outs that look alike come from different tables or passages of the source. Values belong to the compound of their own block, whether it stands above or below them.

Assays:
[1] = system: cisplatin-induced ototoxicity in adult FVB mice; details: earlier study of the authors; cited from earlier work
[2] = system: outer hair cells, 32-kHz region of the organ of Corti; experiment: Morphologic analysis and OHC counts of cochleae from cisplatin-treated mice; type: in vivo, mouse
[3] = system: P3 mouse cochlear explants; experiment: Cochlear explant cultures treated with cisplatin, outer hair cell counts; details: for Protection at higher doses in explants treated with cisplatin: dose-response
[4] = system: cisplatin-induced ototoxicity in adult FVB mice; type: in vivo, mouse; details: 50 μM transtympanic
adult FVB mice = experiment: Toxicity of compound alone delivered transtympanically; details: 2, 10 or 50 μM, single transtympanic injection, 15 days after injection
[5] = weekly dosing schedule, phase I study; cited from earlier work
Cdk2/Cyclin A = Cdk2/Cyclin A (Homo sapiens, UniProt P24941); experiment: CDK2 inhibition assay; type: biochemical

Compound: O=C1Cc2c([nH]c3ccc(Br)cc23)-c2ccccc2N1 [Kenpaullone]
- Overall protection against cisplatin-induced ototoxicity in mice [1]: complete protection

Compound: O=C(N[C@H]1CC[C@H](O)CC1)c1n[nH]cc1NC(=O)c1c(F)cccc1F [analog 7]
- OHC loss in middle basal turn (32-kHz region) vs cisplatin alone ([2]; 50 μM transtympanic 1 h before cisplatin): Substantially less OHC loss
- Protection against cisplatin toxicity in cochlear explants ([3]; compound 150 nM, P3 mouse explants, OHC counts): significant protection
- Protection at higher doses in explants treated with cisplatin [3]: maintains the level of protection at higher doses
- Overall protection against cisplatin-induced ototoxicity in mice [4]: some—but not complete—protection
- Toxicity in the ears of mice in the absence of cisplatin (adult FVB mice): nontoxic

Compound: O=C(NC1CCNCC1)c1n[nH]cc1NC(=O)c1c(Cl)cccc1Cl [AT7519, N-(4-piperidinyl)-4-(2,6-dichlorobenzoylamino)-1H-pyrazole-3-carboxamide]
- Protection in cochlear explant cultures treated with cisplatin ([3]; compound 25 nM, cisplatin 150 μM): excellent protection
- Protection at higher doses in explants treated with cisplatin [3]: loss of activity was observed at higher doses

Compound: Cc1ncc(-c2ccnc(Nc3ccc(S(C)(=O)=O)cc3)n2)n1C(C)C [AZD5438]
- OHC loss in the 32-kHz region ([2]; 50 μM transtympanic 1 h before and 24 h after cisplatin): virtually no OHC loss
- Safety and tolerability in patients [5]: safe and well tolerated
- Overall protection against cisplatin-induced ototoxicity in mice [4]: fully protective

- IC50 (Cdk2/Cyclin A): 0.76 µM
Compound: O=C(NC1CCN(C(=O)c2c(Cl)cccc2Cl)CC1)c1n[nH]cc1NC(=O)c1c(Cl)cccc1Cl [analog 14]

Compound: AZD1080
- EC50 ([3]; read-out: Explant EC50, estimated EC50 based on 2–3 tested dose concentrations, cisplatin 150 μM): 15 µM
